Measurements from patent publication US11214803B2, “Modulators of YAP1 expression” (Ionis Pharmaceuticals, Inc., priority 2019, dated 2022).
Strand notation (5' to 3'): a small letter for the sugar, then the base; units joined by * are phosphorothioate-linked, units joined directly phosphodiester-linked; [ ] holds rarer units or linkages, { } end groups; capitals alone tell only the bases. k = constrained ethyl (cEt); [5mC] = 5-methylcytosine; d = 2'-deoxy (DNA)

These substances were tested on Yap1 mRNA (assay: Antisense inhibition of human Yap1 in A-431 cells by cEt gapmers, single dose (Example 3, RTS36584)). Settings: Table 8; A-431 cells, 5,000 cells per well, free uptake, 2,000 nM, approximately 48 hours; RTS36584; normalized to RIBOGREEN; Yap1 mRNA relative to untreated control cells.
Type: cell-based
How it was run: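 Values are % untreated control: Yap1 mRNA by quantitative RT-PCR (RTS36584), normalized to total RNA by RiboGreen. Before RNA isolation, 5,000 A-431 cells per well were exposed ~48 h to 2,000 nM 16-mer cEt gapmer, delivered without transfection reagent.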

| Substance | YAP1 (% UTC) |
| --- | --- |
| 958397 (antisense k[5mC]*kA*kG*dG*d[5mC]*dT*dA*dT*dT*dA*dA*dG*d[5mC]*kT*kG*kT) [Compound 958397] | 127 |
| 958387 (antisense kG*kA*kG*dG*d[5mC]*dG*d[5mC]*dG*d[5mC]*dG*d[5mC]*dA*dT*kT*kG*kT) [Compound 958387] | 131 |
| 958422 (antisense kT*kT*kT*d[5mC]*dT*dT*dA*dA*d[5mC]*d[5mC]*dA*dG*d[5mC]*kG*kG*kA) [Compound 958422] | 15 |
| 958384 (antisense k[5mC]*k[5mC]*kT*dT*d[5mC]*d[5mC]*dT*d[5mC]*dT*dG*d[5mC]*dG*d[5mC]*kG*k[5mC]*k[5mC]) [Compound 958384] | 131 |

Same assay, conditions: Table 9; A-431 cells, 5,000 cells per well, free uptake, 2,000 nM, approximately 48 hours; RTS36584; normalized to RIBOGREEN; Yap1 mRNA relative to untreated control cells

| Substance | YAP1 (% UTC) |
| --- | --- |
| 958551 (k[5mC]*kT*k[5mC]*d[5mC]*dT*dG*dT*dA*dG*dA*d[5mC]*dA*d[5mC]*kA*kT*kA; antisense) [Compound 958551] | 5 |
| 958481 (antisense kG*k[5mC]*kA*dA*d[5mC]*dT*dG*dG*d[5mC]*dT*dT*dA*dT*kG*kG*kA) [Compound 958481] | 6 |
| 958581 (k[5mC]*kT*kG*d[5mC]*dT*dG*dA*dT*dA*dT*dA*dT*dA*kA*kG*kA; antisense) [Compound 958581] | 26 |
| 958811 (k[5mC]*kA*k[5mC]*dT*dG*dA*dG*dG*d[5mC]*dA*d[5mC]*dG*dG*k[5mC]*k[5mC]*k[5mC]; antisense) [Compound 958811] | 92 |

Same assay, conditions: Table 10; A-431 cells, 5,000 cells per well, free uptake, 2,000 nM oligonucleotide, approx. 48 hours; primer probe set RTS36584; Yap1 mRNA normalized to RIBOGREEN, percent of untreated control

| Substance | YAP1 (% UTC) |
| --- | --- |
| 958677 (kA*kG*kA*dA*d[5mC]*dT*dT*dA*dG*dT*dT*d[5mC]*d[5mC]*k[5mC]*kT*kA; antisense) [Compound 958677] | 51 |
| 958457 (antisense kG*kT*k[5mC]*dG*dA*dA*dG*dA*dT*dG*d[5mC]*dT*dG*kA*kG*k[5mC]) [Compound 958457] | 5 |
| 958752 (antisense kG*kA*kA*dT*dT*dT*dT*dT*dA*dG*dT*d[5mC]*d[5mC]*kA*kG*kT) [Compound 958752] | 2 |

Same assay, conditions: Table 12; A-431 cells, 5,000 cells per well, free uptake, 2,000 nM modified oligonucleotide, approx. 48 hours; RTS36584; normalized to RIBOGREEN; Yap1 mRNA relative to untreated control cells

| Substance | YAP1 (% UTC) |
| --- | --- |
| 958519 (k[5mC]*k[5mC]*k[5mC]*d[5mC]*dT*dA*dG*dG*d[5mC]*dA*d[5mC]*dT*dA*kT*k[5mC]*k[5mC]; antisense) [Compound 958519] | 20 |
| 958509 (kA*kT*kG*dT*dT*dA*dT*dG*dT*dT*dT*dG*dG*kG*kT*kG; antisense) [Compound 958509] | 4 |

Same assay, conditions: Table 13; A-431 cells, 5,000 cells per well, free uptake, 2,000 nM modified oligonucleotide, approx. 48 hours; RTS36584; normalized to RIBOGREEN; Yap1 mRNA relative to untreated control cells

| Substance | YAP1 (% UTC) |
| --- | --- |
| 958715 (antisense kG*kT*kA*dA*dT*dA*dG*dG*dA*dG*dG*dT*dA*kA*kG*kA) [Compound 958715] | 48 |
| 958545 (kA*k[5mC]*kT*d[5mC]*dT*dA*dG*dT*dT*dA*d[5mC]*dA*dT*k[5mC]*kA*kT; antisense) [Compound 958545] | 3 |
| 958620 (antisense kA*kA*kG*d[5mC]*d[5mC]*dT*dT*dG*dG*dG*dT*d[5mC]*dT*kA*kG*k[5mC]) [Compound 958620] | 57 |
| 958665 (k[5mC]*kT*kG*d[5mC]*dA*dT*dA*d[5mC]*d[5mC]*d[5mC]*dT*d[5mC]*d[5mC]*kA*kG*k[5mC]; antisense) [Compound 958665] | 84 |
| 958555 (kG*k[5mC]*kT*dT*dA*dT*dA*dT*dT*dG*dA*dA*dG*kA*kG*kT; antisense) [Compound 958555] | 4 |
| 958525 (kA*kT*kG*dA*dA*dG*dG*dT*dA*dA*dA*d[5mC]*d[5mC]*kA*k[5mC]*kT; antisense) [Compound 958525] | 3 |

Same assay, conditions: Table 26; Yap1 mRNA by 3-10-3 cEt gapmers targeting SEQ ID NO.: 1, and 2; percent of untreated control

| Substance | YAP1 (% UTC) |
| --- | --- |
| 1074604 (DNA kT*kT*kA*dT*dT*dA*dA*dT*d[5mC]*dT*dG*dA*dT*k[5mC]*kA*k[5mC]) [compound 1074604] | 12 |
| 1076044 (kA*kT*k[5mC]*dA*dA*dA*dA*dA*dG*dG*d[5mC]*dT*dA*kT*kT*kG; antisense) [compound 1076044] | 73 |
| 1074156 (kA*kG*kG*dG*d[5mC]*dT*dA*d[5mC]*dG*d[5mC]*d[5mC]*d[5mC]*dG*kG*kA*k[5mC]; antisense) [compound 1074156] | 96 |
| 1074476 (kT*kT*k[5mC]*d[5mC]*dG*dA*d[5mC]*dA*dA*dA*dA*d[5mC]*d[5mC]*kA*kA*k[5mC]; antisense) [compound 1074476] | 18 |
| 1074412 (k[5mC]*kT*kG*dT*dG*dA*dA*dA*dG*dA*dG*dG*dT*k[5mC]*kA*kG; antisense) [compound 1074412] | 55 |

Same assay, conditions: Table 27; Yap1 mRNA by 3-10-3 cEt gapmers targeting SEQ ID NO.: 1, and 2; percent of untreated control

| Substance | YAP1 (% UTC) |
| --- | --- |
| 1075917 (antisense kA*kG*k[5mC]*dA*dA*dA*dA*dA*dG*dT*dG*dA*dT*kA*kT*kG) [compound 1075917] | 55 |
| 1076237 (kA*k[5mC]*kT*dA*dA*dA*dG*dG*dA*d[5mC]*dA*dA*dA*kG*kG*kT; antisense) [compound 1076237] | 109 |
| 1075533 (kG*kA*kT*dT*dA*d[5mC]*dT*d[5mC]*dA*dG*d[5mC]*dT*dA*kT*kG*kT; antisense) [compound 1075533] | 65 |
| 1076269 (kG*kA*k[5mC]*dG*dA*dA*dA*dA*dA*dT*dA*dT*dT*k[5mC]*kT*kT; antisense) [compound 1076269] | 28 |
| 1074541 (k[5mC]*kA*k[5mC]*dT*dA*dT*d[5mC]*d[5mC]*dA*d[5mC]*dA*dG*dT*kA*kA*kT; antisense) [compound 1074541] | 23 |
| 1076173 (k[5mC]*kA*kA*dT*dA*dT*dA*dT*d[5mC]*d[5mC]*dT*dG*dA*kG*kA*kT; antisense) [compound 1076173] | 91 |
| 1076141 (kT*kA*k[5mC]*dG*dA*dA*dA*dA*dA*dA*dG*d[5mC]*d[5mC]*kA*kA*k[5mC]; antisense) [compound 1076141] | 29 |

Same assay, conditions: Table 28; Yap1 mRNA as percent of untreated control; 3-10-3 cEt gapmers targeting SEQ ID NO.: 1, and 2

| Substance | YAP1 (% UTC) |
| --- | --- |
| 1076110 (k[5mC]*kT*kT*dT*dA*d[5mC]*d[5mC]*dT*dA*dA*dA*dT*dG*kT*kT*kG; antisense) [compound 1076110] | 53 |
| 1076334 (antisense kA*k[5mC]*k[5mC]*dT*dA*dT*dA*dA*dG*dG*dA*dA*dT*kG*kG*k[5mC]) [compound 1076334] | 108 |

Same assay, conditions: Table 29; Yap1 mRNA as percent of untreated control; 3-10-3 cEt gapmers targeting SEQ ID NO.: 1, and 2

| Substance | YAP1 (% UTC) |
| --- | --- |
| 1074255 (antisense kT*k[5mC]*kA*dT*d[5mC]*dT*dG*dG*dG*dA*d[5mC]*dA*dG*k[5mC]*kA*kT) [compound 1074255] | 16 |
| 1074159 (k[5mC]*kG*kA*dG*d[5mC]*dG*dA*dG*dG*dG*d[5mC]*dT*dA*k[5mC]*kG*k[5mC]; antisense) [compound 1074159] | 77 |
| 1075183 (kA*kT*kT*dA*d[5mC]*dT*dA*dA*dG*dA*d[5mC]*dA*dG*kT*kG*kG; antisense) [compound 1075183] | 15 |
| 1075695 (kG*kA*kA*dT*dA*dA*d[5mC]*dA*d[5mC]*d[5mC]*dA*d[5mC]*dA*kT*kT*kA; antisense) [compound 1075695] | 30 |
| 1075343 (antisense kA*kA*k[5mC]*dT*dA*dA*dA*dA*dG*dG*dG*dA*dG*kT*kA*kG) [compound 1075343] | 89 |

Same assay, conditions: Table 34; Yap1 mRNA as percent of untreated control; 3-10-3 cEt gapmers targeting SEQ ID NO: 1 and 2; single dose

| Substance | YAP1 (% UTC) |
| --- | --- |
| 1075252 (kT*kT*kA*dA*dT*dT*dA*d[5mC]*dG*dA*dT*dT*dA*kG*kA*kT; antisense) [compound 1075252] | 90 |
| 1074356 (antisense kG*kA*kG*dG*dG*dA*d[5mC]*dA*d[5mC]*dT*dG*dT*dA*kG*k[5mC]*kT) [compound 1074356] | 43 |
| 1074740 (kG*kG*kA*d[5mC]*dT*d[5mC]*dT*dT*dA*dG*dG*dT*d[5mC]*kT*k[5mC]*k[5mC]; antisense) [compound 1074740] | 75 |
| 1075380 (antisense kA*k[5mC]*kT*dA*dA*dA*dA*d[5mC]*dT*dG*dA*d[5mC]*dT*kG*kT*k[5mC]) [compound 1075380] | 94 |

Same assay, conditions: Table 35; Yap1 mRNA as percent of untreated control; 3-10-3 cEt gapmers targeting SEQ ID NO: 1 and 2; single dose

| Substance | YAP1 (% UTC) |
| --- | --- |
| 1075413 (antisense k[5mC]*kA*kT*dA*dA*d[5mC]*dT*dA*d[5mC]*dA*dT*d[5mC]*dG*kA*k[5mC]*kA) [compound 1075413] | 34 |
| 1074581 (DNA kA*kA*k[5mC]*d[5mC]*dA*d[5mC]*dT*dA*dT*dA*dA*dA*dG*k[5mC]*kT*kT; antisense) [compound 1074581] | 18 |
| 1076181 (kT*kA*kT*dA*dA*dT*dT*dA*dG*d[5mC]*d[5mC]*dA*dA*k[5mC]*k[5mC]*kA; antisense) [compound 1076181] | 26 |
| 1076053 (kT*kA*k[5mC]*d[5mC]*dA*dA*d[5mC]*dA*dA*dG*dG*d[5mC]*dA*kT*k[5mC]*kA; antisense) [compound 1076053] | 55 |
| 1075733 (k[5mC]*kA*kA*dT*dA*dA*d[5mC]*d[5mC]*dT*d[5mC]*dG*dA*dG*kT*kG*k[5mC]; antisense) [compound 1075733] | 28 |
